From paper PMC8766756, “Insights on Cancer Cell Inhibition, Subcellular Activities, and Kinase Profile of Phenylacetamides Pending 1H-Imidazol-5-One Variants” (Frontiers in Pharmacology, 2022) come the findings set out here.

“And” between values parts separate entries of the source, which are not always exact repeats. Equal entries are not always repeated.

What all share (assay): PamChip tyrosine kinase microarray
Common to all, as to type: biochemical
Common to all, as to conditions: 0.1 µM, HL60 lysate

Assay [1] addresses T1, PDGFR[beta] (P09619) (Homo sapiens, UniProt P09619).
T1 construct: purchased PamGene (PamChip PTK array, Upstream Kinase Analysis)
Put shortly: (§1)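 HL60 (AML) cell lysate was spiked with compound at 0.001, 0.01, 0.1, 1, 10 and 50 µM, or 2% v/v DMSO as control, then profiled in technical replicates on a tyrosine kinase peptide array of 196 phosphosites. Kinase activity was inferred from peptide-set changes using an upstream kinase tool.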

The target in assay [2] is T2, JAK1~b (P23458) (Homo sapiens, UniProt P23458).
T2 construct: JAK1~b (P23458); purchased PamGene (PamChip PTK array, Upstream Kinase Analysis)
Put shortly:
as §1

In assay [3] the target is T3, Lmr1 (Q6ZMQ8) (Homo sapiens, UniProt Q6ZMQ8).
T3 construct: purchased PamGene (PamChip PTK array, Upstream Kinase Analysis)
T3 sequence (Q6ZMQ8 1-1374): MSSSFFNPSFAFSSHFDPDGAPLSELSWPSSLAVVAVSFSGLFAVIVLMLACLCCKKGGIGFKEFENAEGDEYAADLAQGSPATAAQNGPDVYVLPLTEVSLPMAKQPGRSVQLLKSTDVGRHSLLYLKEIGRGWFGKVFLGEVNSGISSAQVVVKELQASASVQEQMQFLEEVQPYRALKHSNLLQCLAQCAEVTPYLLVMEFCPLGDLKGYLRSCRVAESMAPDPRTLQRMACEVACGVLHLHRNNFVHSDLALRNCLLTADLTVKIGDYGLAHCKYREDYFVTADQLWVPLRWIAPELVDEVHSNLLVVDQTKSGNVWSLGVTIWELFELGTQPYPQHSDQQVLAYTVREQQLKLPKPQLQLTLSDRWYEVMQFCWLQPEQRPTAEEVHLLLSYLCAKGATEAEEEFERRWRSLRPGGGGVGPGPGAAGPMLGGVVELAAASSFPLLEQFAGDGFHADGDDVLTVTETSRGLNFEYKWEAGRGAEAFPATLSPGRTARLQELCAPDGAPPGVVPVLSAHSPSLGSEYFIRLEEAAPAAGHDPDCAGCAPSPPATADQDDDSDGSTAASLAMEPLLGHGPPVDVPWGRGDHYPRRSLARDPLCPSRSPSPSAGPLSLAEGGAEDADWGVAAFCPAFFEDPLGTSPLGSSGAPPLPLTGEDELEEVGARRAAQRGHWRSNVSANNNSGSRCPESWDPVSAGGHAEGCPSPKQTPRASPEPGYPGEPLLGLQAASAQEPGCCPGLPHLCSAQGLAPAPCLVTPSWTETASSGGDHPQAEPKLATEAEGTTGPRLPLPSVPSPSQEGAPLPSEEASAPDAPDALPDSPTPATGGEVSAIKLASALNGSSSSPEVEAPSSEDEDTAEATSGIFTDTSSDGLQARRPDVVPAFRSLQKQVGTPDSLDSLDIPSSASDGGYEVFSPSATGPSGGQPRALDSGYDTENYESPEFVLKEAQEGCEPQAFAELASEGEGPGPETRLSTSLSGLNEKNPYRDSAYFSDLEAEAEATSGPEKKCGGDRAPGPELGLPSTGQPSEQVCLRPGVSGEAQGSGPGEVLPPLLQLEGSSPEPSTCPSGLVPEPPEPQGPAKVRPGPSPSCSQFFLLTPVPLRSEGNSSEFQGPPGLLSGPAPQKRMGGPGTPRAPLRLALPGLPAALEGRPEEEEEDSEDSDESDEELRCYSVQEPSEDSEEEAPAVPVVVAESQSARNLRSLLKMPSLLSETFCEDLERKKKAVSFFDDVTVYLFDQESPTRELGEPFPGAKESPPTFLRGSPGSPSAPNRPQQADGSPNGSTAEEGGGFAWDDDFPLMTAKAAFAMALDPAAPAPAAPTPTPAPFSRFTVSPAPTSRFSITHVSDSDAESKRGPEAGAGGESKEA
Put shortly:
as §1

The target of assay [4] is T4, FAK1 (Q05397) (Homo sapiens, UniProt Q05397).
T4 construct: purchased PamGene (PamChip PTK array, Upstream Kinase Analysis)
Put shortly:
as §1

T1 sequence (P09619 33-1106): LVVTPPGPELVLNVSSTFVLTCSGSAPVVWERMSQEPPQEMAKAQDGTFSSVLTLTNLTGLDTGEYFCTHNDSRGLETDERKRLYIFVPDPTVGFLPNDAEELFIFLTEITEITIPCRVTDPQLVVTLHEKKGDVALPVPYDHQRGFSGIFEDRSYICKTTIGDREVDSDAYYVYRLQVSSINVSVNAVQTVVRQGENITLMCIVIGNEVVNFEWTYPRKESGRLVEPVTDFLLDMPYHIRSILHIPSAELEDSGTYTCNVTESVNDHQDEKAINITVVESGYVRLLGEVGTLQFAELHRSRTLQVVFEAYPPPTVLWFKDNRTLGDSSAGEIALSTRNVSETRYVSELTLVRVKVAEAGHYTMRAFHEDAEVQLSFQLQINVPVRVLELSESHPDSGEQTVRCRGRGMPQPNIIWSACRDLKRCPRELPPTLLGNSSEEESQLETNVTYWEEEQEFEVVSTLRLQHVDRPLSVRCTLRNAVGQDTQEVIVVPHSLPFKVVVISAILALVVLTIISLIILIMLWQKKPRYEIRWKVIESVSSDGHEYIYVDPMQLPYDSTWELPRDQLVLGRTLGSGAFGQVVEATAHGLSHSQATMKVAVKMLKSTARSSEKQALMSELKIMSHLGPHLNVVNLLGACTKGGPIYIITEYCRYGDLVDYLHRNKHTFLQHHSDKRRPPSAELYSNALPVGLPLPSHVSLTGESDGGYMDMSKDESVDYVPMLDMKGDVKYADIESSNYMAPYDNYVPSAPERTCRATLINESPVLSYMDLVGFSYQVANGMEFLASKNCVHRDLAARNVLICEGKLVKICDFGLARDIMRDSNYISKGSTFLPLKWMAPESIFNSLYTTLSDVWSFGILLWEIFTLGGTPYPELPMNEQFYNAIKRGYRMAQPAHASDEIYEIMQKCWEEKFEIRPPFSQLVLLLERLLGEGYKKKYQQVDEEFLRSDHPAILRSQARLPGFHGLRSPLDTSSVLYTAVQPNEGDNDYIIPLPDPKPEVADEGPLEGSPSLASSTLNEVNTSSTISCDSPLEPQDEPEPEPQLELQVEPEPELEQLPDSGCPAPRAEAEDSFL
T4 sequence (Q05397 whole entry): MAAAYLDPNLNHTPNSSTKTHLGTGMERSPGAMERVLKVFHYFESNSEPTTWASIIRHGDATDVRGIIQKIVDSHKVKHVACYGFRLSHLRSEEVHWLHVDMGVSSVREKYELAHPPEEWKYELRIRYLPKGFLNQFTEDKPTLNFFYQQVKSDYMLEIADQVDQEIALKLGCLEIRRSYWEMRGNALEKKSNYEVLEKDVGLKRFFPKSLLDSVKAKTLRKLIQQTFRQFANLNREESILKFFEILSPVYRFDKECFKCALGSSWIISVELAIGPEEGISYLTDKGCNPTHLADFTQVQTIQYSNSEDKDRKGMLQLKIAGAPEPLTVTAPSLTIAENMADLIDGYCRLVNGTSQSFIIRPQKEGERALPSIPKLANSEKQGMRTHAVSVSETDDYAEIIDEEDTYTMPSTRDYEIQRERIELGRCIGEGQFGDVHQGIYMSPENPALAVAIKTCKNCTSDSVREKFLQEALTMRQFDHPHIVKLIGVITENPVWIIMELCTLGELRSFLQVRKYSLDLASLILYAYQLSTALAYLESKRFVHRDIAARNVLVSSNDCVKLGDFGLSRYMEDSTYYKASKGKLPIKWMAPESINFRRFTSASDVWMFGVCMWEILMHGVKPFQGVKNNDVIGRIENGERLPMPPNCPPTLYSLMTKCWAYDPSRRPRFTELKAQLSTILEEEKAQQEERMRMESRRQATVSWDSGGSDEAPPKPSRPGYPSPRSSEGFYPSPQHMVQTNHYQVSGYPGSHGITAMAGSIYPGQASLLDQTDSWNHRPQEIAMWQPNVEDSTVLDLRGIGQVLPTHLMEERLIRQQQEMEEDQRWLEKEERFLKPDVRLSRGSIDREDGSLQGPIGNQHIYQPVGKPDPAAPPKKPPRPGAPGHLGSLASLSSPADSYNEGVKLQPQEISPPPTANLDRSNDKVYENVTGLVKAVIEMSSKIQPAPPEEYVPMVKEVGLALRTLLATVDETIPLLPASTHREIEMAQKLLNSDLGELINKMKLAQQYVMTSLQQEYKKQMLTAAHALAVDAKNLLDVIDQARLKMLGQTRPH
T2 sequence (P23458 whole entry): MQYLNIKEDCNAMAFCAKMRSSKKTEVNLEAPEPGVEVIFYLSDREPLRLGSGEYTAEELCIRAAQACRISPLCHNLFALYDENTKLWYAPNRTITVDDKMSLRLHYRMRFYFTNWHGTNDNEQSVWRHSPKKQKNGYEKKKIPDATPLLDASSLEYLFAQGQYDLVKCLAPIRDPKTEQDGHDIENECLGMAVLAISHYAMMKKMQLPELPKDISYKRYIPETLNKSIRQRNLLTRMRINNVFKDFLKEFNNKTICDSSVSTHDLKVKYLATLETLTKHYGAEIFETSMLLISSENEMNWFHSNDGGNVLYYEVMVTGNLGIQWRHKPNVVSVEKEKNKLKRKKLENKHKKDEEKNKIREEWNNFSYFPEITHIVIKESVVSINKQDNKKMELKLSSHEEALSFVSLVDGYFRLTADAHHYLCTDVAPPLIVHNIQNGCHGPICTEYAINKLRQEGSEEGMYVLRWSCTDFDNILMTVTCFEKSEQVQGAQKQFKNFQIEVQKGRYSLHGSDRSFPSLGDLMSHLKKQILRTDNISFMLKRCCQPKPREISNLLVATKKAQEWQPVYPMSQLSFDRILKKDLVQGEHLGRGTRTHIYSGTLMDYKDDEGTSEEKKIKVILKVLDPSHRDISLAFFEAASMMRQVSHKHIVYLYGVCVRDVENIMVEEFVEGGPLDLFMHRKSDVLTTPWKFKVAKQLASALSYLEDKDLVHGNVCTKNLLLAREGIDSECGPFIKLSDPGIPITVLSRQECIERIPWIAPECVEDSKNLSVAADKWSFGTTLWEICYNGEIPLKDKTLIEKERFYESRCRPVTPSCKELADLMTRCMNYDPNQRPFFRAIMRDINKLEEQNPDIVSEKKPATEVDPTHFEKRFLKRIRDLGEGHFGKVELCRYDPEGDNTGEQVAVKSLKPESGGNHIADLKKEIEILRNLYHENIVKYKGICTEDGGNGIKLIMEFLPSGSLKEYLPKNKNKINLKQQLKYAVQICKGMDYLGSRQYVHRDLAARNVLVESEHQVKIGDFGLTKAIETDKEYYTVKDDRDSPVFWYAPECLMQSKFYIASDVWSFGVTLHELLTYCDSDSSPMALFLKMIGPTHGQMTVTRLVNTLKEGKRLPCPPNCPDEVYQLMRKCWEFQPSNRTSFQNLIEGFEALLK

Turning to `COc1ccc(/C=C2\N=C(C)N(c3ccc(CC(=O)NCc4ccccc4)cc3)C2=O)cc1` [Compound 4c, (Z)-N-Benzyl-2-(4-(4-(4-methoxybenzylidene)-2-methyl-5-oxo-4,5-dihydro-1H-imidazol-1-yl)phenyl)acetamide], the “Mean Final score (Kinase score)” value in assay [1] was 2.559; in assay [2] (listed as KIM-161), 3.51 and 3.514; in assay [3] it was 2.52; in assay [4], 2.506. The “Mean Kinase Statistic” value was -1.304 in assay [1], -1.33 in assay [3] and -1.237 in assay [4]. Moreover, the “Mean Significance Score” value in assay [1] is recorded as 2.048; in assay [2], 1.955; in assay [3], 1.989; in assay [4], 2.048. Besides, the “Mean Specificity Score” value in assay [1] came out at 0.562; in assay [2], 1.609; in assay [3], 0.4793; in assay [4], 0.5313.
